{"source": "patent US20260055061A1", "about": "“HALOPHTHALIMIDE COMPOUNDS AND METHODS OF USE AGAINST TBI, INFLAMMATORY DISORDER, AUTOIMMUNE DISORDER, NEURODEGENERATIVE DISEASE OR VIRAL INFECTION” (The United States of America, as represented by the …, priority 2022, published 2026)", "key": {"chicken embryos": {"system": "chicken embryos", "test": "Chick embryo teratogenicity", "type": "in vivo", "procedure": "Chick embryology and analysis: Chicken eggs were obtained from Henry Stewart & Co Ltd, Norfolk UK. All work with chicken embryos obeyed UK Home Office regulations and followed guidelines, standards and practices governed by the University of Aberdeen Ethics Committee (Scotland, UK). […] Embryos were incubated at 37° C. for the required time period to reach E2.5 and E4 (early and mid-developmental stages, respectively). Eggs were then opened and the embryonic membranes protecting the embryos were removed with forceps. Chicken embryos typically lie on one side, so the left side is directly against the yolk and the right side can be observed. Drug (TFBP) or Control (DMSO alone) solutions were applied in 100 μL aliquots over the middle of the embryo on its right side. Embryos were left at room temperature for 20 min before being replaced in a 37° C. incubator. Due to the limited diffusion of drugs when applied to the right side of an embryo, the right side is considered the ‘treatment’ side and the left (facing internally towards the yolk sack) is considered normal after treatment and can, thereby, act as an internal control."}, "[1]": {"biological_target": "cereblon (CRBN/DDB1-CUL4A-Rbx1 complex) / BRD3 (Homo sapiens (Human), UniProt Q96SW2)", "sequence (Q96SW2 whole entry)": "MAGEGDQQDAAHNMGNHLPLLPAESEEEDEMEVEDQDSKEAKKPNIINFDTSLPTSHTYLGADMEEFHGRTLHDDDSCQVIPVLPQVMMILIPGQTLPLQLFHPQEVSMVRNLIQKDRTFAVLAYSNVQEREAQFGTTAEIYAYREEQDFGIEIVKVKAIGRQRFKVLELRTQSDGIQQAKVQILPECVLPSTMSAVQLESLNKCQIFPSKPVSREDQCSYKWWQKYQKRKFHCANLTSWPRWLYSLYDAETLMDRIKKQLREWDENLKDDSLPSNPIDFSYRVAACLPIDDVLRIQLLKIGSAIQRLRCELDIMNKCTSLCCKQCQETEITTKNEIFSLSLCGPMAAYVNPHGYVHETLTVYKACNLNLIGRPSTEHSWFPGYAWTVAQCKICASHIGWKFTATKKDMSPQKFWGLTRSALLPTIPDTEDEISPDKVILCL", "sequence (Q16531 whole entry partner)": "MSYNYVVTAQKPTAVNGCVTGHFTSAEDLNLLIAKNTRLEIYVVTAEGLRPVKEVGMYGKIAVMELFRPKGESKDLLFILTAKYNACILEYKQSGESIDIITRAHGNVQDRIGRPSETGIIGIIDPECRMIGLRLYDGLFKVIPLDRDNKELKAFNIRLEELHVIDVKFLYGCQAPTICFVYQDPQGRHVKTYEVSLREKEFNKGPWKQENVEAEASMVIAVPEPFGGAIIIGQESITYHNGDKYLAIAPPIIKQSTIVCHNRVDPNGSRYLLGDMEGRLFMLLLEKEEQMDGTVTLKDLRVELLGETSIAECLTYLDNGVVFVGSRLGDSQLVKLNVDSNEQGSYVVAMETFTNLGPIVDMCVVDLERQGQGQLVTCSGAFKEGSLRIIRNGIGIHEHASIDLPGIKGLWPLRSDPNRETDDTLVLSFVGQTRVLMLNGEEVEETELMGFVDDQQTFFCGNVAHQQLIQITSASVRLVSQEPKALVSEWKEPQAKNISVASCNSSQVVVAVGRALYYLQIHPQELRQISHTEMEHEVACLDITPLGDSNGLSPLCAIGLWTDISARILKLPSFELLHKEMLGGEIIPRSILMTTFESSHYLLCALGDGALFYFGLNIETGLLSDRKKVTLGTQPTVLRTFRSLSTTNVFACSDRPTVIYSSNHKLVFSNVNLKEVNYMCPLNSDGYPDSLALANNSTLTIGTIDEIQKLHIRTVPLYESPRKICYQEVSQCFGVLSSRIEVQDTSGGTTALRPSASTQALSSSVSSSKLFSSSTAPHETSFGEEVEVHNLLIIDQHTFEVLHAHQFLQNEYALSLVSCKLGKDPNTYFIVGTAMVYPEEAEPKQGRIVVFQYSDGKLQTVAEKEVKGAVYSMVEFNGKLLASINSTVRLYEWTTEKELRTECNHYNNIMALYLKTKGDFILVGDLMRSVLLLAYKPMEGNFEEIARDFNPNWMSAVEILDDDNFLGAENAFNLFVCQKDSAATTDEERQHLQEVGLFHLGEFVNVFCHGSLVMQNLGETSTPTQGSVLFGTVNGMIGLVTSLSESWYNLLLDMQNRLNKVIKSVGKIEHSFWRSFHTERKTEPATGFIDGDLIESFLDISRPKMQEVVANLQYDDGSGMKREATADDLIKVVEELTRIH", "sequence (Q13619 whole entry partner)": "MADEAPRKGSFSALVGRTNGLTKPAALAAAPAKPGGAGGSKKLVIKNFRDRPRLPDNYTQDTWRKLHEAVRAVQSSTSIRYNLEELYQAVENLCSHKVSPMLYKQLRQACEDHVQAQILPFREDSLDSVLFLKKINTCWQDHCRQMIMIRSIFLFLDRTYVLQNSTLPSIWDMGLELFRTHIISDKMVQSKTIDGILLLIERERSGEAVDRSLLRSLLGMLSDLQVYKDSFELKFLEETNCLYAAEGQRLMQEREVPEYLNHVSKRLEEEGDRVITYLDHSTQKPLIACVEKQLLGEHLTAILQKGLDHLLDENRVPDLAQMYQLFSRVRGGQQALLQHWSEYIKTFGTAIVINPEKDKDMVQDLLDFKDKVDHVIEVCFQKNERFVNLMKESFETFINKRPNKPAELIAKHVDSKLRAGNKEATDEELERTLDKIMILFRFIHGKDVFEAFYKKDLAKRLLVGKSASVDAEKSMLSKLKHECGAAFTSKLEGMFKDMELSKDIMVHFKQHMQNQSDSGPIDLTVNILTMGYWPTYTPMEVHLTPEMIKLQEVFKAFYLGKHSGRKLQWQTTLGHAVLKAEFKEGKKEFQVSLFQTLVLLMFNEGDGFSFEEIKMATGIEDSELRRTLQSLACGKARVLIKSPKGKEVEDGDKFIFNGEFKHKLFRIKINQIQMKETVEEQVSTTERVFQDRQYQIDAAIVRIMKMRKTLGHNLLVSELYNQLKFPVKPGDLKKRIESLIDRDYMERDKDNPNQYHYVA", "sequence (P62877 whole entry partner)": "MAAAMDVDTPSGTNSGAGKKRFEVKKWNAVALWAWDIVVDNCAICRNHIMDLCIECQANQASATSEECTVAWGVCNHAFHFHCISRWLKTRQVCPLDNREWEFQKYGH", "test": "Cereblon/BRD3 binding assay (AlphaScreen / FRET)", "settings": "for IC50: Example 5, FIG. 20A; for cereblon binding (in words): cereblon/BRD3 binding FRET assay", "procedure": "After 30 min of incubation with shaking at room temperature, AlphaLISA anti-FLAG Acceptor and Alpha Glutathione Donor beads (PerkinElmer) were sequentially added and then incubated for 1 hr at room temperature for each of the added chemicals. Alpha counts were thereafter read on a Synergy Neo2 (BioTek) for the analysis. Relative activity or inhibition was calculated as the highest value, which was set to 100%, and the lowest value was set to 0% after subtraction of the “blank value” from all readings.\nAfter 30 min of incubation with shaking at room temperature, AlphaLISA anti-FLAG Acceptor and Alpha Glutathione Donor beads (PerkinElmer) were sequentially added and then incubated for 1 h at room temperature for each of the added chemicals. Alpha counts were thereafter read on a Synergy Neo2 (BioTek) for the analysis. The relative activity of the alpha signal was calculated after subtraction of the “blank value” from all readings, and the value of the vehicle group was then set as 100%."}, "KC/GRO (CXCL1)": {"system": "KC/GRO (CXCL1)", "test": "LPS model of inflammation in rats: KC/GRO (CXCL1)", "type": "in vivo", "settings": "29.57 mg/kg i.p.; LPS rat model", "procedure": "(§1) Four hours after LPS injection, animals were euthanized, and blood and brain tissue were collected and placed on wet ice. Plasma was quickly separated from blood by centrifuge at 10,000 g. 5 min, 4° C., and brain regions of cortex, hippocampus and the rest of brain were dissected into separate vials on wet ice, then stored at −80° C. Brain tissues were then sonicated in a TRIS based lysis buffer (Mesoscale Discovery) with 3× protease/phosphatase inhibitors (Halt™ Protease and Phosphatase Inhibitor Cocktail, Thermo Fisher Scientific), were then centrifuged at 10,000 g, 10 min, 4° C., and protein concentrations were measured by Bicinchoninic acid assay (BCA, Thermo Fisher Scientific). Rat plasma, cerebral cortical and hippocampal samples were then analyzed by multi-proinflammatory cytokines ELISA (V-PLEX Proinflammatory Panel 2 Rat Kit, Mesoscale Discovery), following the manufacturer's protocol. The processes and dosages of the experiment of drug treatment effects on LPS rat model was made on the basis of our previous studies."}, "IL-6": {"system": "IL-6", "test": "LPS model of inflammation in rats: IL-6 in plasma, cortex, hippocampus", "type": "in vivo", "settings": "29.57 mg/kg i.p.; LPS rat model", "procedure": "as §1"}, "[2]": {"settings": "3.5 μM, chicken embryos age E4, N = 7"}, "[3]": {"settings": "7.0 μM, chicken embryos age E2.5, N = 6"}, "[4]": {"settings": "7.0 μM, chicken embryos age E4, N = 7"}, "[5]": {"settings": "14.0 μM, chicken embryos age E2.5, N = 6"}}, "data": [{"compound": "CC1(C)[C@@H]2CC[C@@]1(C)[C@@H](N1C(=O)c3c(F)c(F)c(F)c(F)c3C1=O)C2", "note": "[Compound 14, 4,5,6,7-Tetrafluoro-2-((1R,2S,4R)-1,7,7-trimethylbicyclo[2.2.1]heptan-2-yl) isoindoline-1,3-dione]", "values": [{"measurement": "Abnormal embryos", "setting": "chicken embryos; [2]", "value": 0}, {"measurement": "Dead embryos", "setting": "chicken embryos; [2]", "value": 0}, {"measurement": "Normal embryos", "setting": "chicken embryos; [2]", "value": 7}, {"measurement": "Abnormal embryos", "setting": "chicken embryos; [3]", "value": 0}, {"measurement": "Dead embryos", "setting": "chicken embryos; [3]", "value": 2}, {"measurement": "Normal embryos", "setting": "chicken embryos; [3]", "value": 4}, {"measurement": "Abnormal embryos", "setting": "chicken embryos; [4]", "value": 0}, {"measurement": "Dead embryos", "setting": "chicken embryos; [4]", "value": 3}, {"measurement": "Normal embryos", "setting": "chicken embryos; [4]", "value": 4}, {"measurement": "Dead embryos", "setting": "chicken embryos; [5]", "value": 3}, {"measurement": "Normal embryos", "setting": "chicken embryos; [5]", "value": 2}, {"measurement": "developmental anomaly in chicken embryos", "setting": "chicken embryos; 14.0 μM, a single embryo, eye on control side", "value": "micro-opthalmia of the eye"}, {"measurement": "deaths of chicken embryos", "setting": "chicken embryos; 14.0 μM, around 48-72 h after application", "value": "three deaths"}, {"measurement": "effects on embryo development", "setting": "chicken embryos; 3.5 and 7.0 μM", "value": "No effects on embryo development"}, {"measurement": "tolerability in chicken embryos", "setting": "chicken embryos; lower dose 3.5 μM, E2.5 and E4", "value": "well tolerated"}, {"measurement": "death rate in chicken embryos", "setting": "chicken embryos; two higher doses 7.0 and 14.0 μM", "value": "increasing death rate"}, {"measurement": "IC50", "setting": "[1]", "value": 53.4, "unit": "µM"}, {"measurement": "cereblon binding (in words)", "setting": "[1]", "value": "did not bind cereblon"}]}, {"compound": "O=C1c2c(F)c(F)c(F)c(F)c2C(=O)N1C1CC2CCC1C2", "note": "(stereo not drawn) [Compound 16, 2-Endo-(bicyclo[2.2.1]heptan-2-yl)-4,5,6,7-tetrafluoroisoindoline-1,3-dione]", "values": [{"measurement": "IC50", "setting": "[1]", "value": "> 100", "unit": "µM"}, {"measurement": "cereblon binding (in words)", "setting": "[1]", "value": "did not bind cereblon"}]}, {"compound": "Nc1ccc(F)c2c1C(=S)N(C1CCC(=S)NC1=O)C2=O", "note": "(stereo not shown) [Compound 30, 4-amino-7-fluoro-2-(2-oxo-6-thioxopiperidin-3-yl)-3-thioxoisoindolin-1-one]", "values": [{"measurement": "KC/GRO in brain", "setting": "KC/GRO (CXCL1)", "value": "significantly reduce"}, {"measurement": "IL-6 in plasma, cortex, and hippocampus", "setting": "IL-6", "value": "significantly reduce"}]}]}
